The values that follow come from paper PMC11790914, “Chemogenomics for steroid hormone receptors (NR3)” (Communications Chemistry, 2025).

Like-named read-outs stand apart in the source and are kept apart here.

One series addresses T1, NR1I3 (CAR) (Homo sapiens, UniProt Q14994).
T1 construct: expressed in transfected cells; host or cells: HEK293T
T1 sequence (Q14994 109-352 limits assumed): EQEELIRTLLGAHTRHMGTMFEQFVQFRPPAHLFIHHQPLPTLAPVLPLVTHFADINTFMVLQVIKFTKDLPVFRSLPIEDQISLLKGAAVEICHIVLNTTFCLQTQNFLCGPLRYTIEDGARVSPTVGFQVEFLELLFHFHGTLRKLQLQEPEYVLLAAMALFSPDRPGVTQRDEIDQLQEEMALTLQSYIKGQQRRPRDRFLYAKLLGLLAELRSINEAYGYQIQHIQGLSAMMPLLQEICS
Put plainly: Gal4 hybrid reporter gene assay CAR. In kind it is cell-based. To be noted: n=3. The protocol: Reference ligands are listed in the methods section.
HEK293T cells (ATCC, Manassas, Virgina, USA; #CRL-3216) were cultured to a maximal confluence of 70–80% in DMEM, high glucose, supplemented with 10% FCS, sodium pyruvate (1 mM), penicillin (100 U/mL), and streptomycin (100 μg/mL) at 37 °C and 5% CO2 (v/v), and seeded in clear 96-well plates (4 × 10^4 cells per well). After 20–24 h, medium was changed to Opti-MEM without supplements and the cells were transiently transfected using Lipofectamine™ LTX/Plus™ Reagents (Invitrogen, Carlsbad, California, USA; #15338100) according to the manufacturer’s protocol with pFR-Luc (reporter gene; Stratagene, Agilent Technologies, Santa Clara, California, USA; #219050), pRL-SV40 (control gene for normalization of transfection efficiency and cell growth; Promega, Fitchburg, Wisconsin, USA; #E2231) and one pFA-CMV-hNR-LBD clone coding for the hinge region and ligand binding domain (LBD) of the human NR of interest. Five hours after transfection, the cells were incubated with the NR3 CG compound candidates at the recommended concentrations by changing the medium to Opti-MEM supplemented with penicillin (100 µ/mL) and streptomycin (100 µg/mL) additionally containing 0.1% DMSO and the respective test compound or 0.1% DMSO alone as untreated control. Firefly (reporter) and renilla (control) luminescence were measured after 14–16 h incubation using the Dual-Glo® Luciferase Assay System (Promega, Fitchburg, Wisconsin, USA; #E2980) according to manufacturer’s protocol on a Tecan Spark® 10M multimode microplate reader (Tecan Group AG, Männedorf, Switzerland). To obtain relative light units (RLU) firefly luminescence was divided by renilla luminescence and multiplied by 1000. Fold activation was obtained by dividing the mean RLU of a test sample by the mean RLU of the DMSO (0.1%) control. Experiments were performed in singlets in at least three biologically independent repeats. […]
(A reporter such as luciferase makes a cellular process visible.)

A further series addresses T2, FGFR3 (Homo sapiens, UniProt P22607).
T2 construct: made in house
Put plainly: Liability panel screening by DSF: FGFR3. Format: binding. To be noted: DSF, 20 µM, n=2; for ΔTm at 20 µM: read-out: Mean ΔTM FGFR3. In a few lines: (§1)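 ∆Tm in K was taken from Boltzmann-fitted unfolding inflection points, run in duplicate with a temperature ramp of 3 °C per minute up to 85 °C. Each recombinant protein (2 µM) was in HEPES 10 mM pH 7.5 and NaCl 500 mM, with SYPRO Orange dye at 1:1000.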
For orientation: DSF heats the sample and reads unfolding from a dye or from intrinsic fluorescence.

Another series concerns the target T3, BRPF1 (Homo sapiens, UniProt P55201).
T3 construct: This panel comprised ten highly ligandable kinases and bromodomains; made in house
T3 sequence (P55201 628-732 limits assumed): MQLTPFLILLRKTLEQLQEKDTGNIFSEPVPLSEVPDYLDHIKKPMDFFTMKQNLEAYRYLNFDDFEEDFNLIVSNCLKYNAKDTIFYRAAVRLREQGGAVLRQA
Put plainly: Liability panel screening by DSF: BRPF1. Format: binding. To be noted: DSF, 20 µM, n=2; for ΔTm at 20 µM: read-out: Mean ΔTM BRPF1. In short, it runs like this: as §1

In a further series the target is T4, MAPK1 (Homo sapiens, UniProt P28482).
T4 construct: made in house
T4 sequence (P28482 whole entry, species assumed): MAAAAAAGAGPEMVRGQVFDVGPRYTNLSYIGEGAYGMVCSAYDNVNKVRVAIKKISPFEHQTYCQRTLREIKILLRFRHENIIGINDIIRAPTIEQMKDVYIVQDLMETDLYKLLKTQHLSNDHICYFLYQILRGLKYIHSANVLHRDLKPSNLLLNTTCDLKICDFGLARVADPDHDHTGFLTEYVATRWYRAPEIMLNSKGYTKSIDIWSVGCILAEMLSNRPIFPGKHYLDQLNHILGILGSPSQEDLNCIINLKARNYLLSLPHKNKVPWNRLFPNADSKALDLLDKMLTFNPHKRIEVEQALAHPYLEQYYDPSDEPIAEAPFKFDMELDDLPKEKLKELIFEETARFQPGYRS
Put plainly: Liability panel screening by DSF: MAPK1. In kind it is binding. To be noted: DSF, 20 µM, n=2; for ΔTm at 20 µM: read-out: Mean ΔTM MAPK1. In short, it runs like this: as §1

A further series deals with NR3A1 (ERα). To be noted: cited from earlier work; for IC50: read-out: Potency [nM] IC50, NR3A1 (ERα).
For the next series, the system named is HEK293T cells. Put plainly: Evaluation of cytotoxicity (overall: growth-rate, metabolic activity, apoptosis, necrosis). Format: cell-based. To be noted: 24 h; for effects on growth-rate, metabolic activity and necrosis: HEK293T, budesonide (3 µM), others at tested concentration. How it is done: The selection of 40 CG candidates was acquired from commercial vendors (purity ≥95%) and applied to initial toxicity screening. Cytotoxicity was determined in HEK293T cells considering growth-rate, metabolic activity as well as apoptosis and/or necrosis induction to evaluate suitability of the compounds for CG application in cellular settings (Fig. 3a–d, Supplementary Fig. 1, Supplementary Data 1). The candidates were generally well tolerated at concentrations >>EC50/IC50 that we recommend for CG application with only four compounds showing mild toxic effects. […] In terms of cytotoxicity, all candidates thus appeared suitable for inclusion in an NR3 CG set.

T2 sequence (P22607 23-806, species assumed): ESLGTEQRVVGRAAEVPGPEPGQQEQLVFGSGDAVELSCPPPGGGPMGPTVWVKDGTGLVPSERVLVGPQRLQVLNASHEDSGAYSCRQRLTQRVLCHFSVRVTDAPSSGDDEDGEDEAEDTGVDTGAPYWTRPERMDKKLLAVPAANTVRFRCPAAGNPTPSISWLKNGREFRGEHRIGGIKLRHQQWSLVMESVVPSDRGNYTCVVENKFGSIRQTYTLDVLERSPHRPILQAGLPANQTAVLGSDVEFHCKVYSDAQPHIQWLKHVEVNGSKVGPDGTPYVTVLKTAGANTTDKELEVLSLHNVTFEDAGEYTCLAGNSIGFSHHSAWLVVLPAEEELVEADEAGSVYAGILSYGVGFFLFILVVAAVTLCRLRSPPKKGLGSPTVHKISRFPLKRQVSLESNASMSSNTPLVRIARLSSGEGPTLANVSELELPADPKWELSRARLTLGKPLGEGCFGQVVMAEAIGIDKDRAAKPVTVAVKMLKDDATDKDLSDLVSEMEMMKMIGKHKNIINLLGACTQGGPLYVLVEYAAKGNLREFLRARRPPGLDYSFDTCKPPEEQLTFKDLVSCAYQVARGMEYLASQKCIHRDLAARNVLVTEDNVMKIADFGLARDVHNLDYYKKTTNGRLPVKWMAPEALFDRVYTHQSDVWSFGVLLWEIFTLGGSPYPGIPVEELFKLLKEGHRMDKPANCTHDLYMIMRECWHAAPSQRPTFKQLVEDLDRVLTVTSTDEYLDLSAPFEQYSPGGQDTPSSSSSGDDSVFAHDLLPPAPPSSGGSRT

Turning to `CC/C(=C(\c1ccc(O)cc1)c1ccc(OCCN(C)C)cc1)c1ccccc1` [(Z)-4-Hydroxytamoxifen], on NR1I3 (CAR) (3 µM, vs. DMSO ctrl), the “Activity on NR targets outside NR3 family [mean log10(fold reporter gene activity)] NR1I3 (CAR)” value is listed as 1.13 log10(fold reporter gene activity). Further, the ΔTm – broadly, the shift of the melting midpoint relative to a reference – at 20 µM at FGFR3 is 0.53 °C; on BRPF1, -1.98 °C; at MAPK1, 0.0336 °C. In addition, in the series with NR3A1 (ERα), the IC50 (in general, the concentration at which inhibition is half-maximal) is 2 ± 1 nM.
Consider `CC/C(=C(/c1ccc(/C=C/C(=O)O)cc1)c1ccc2[nH]ncc2c1)c1ccc(F)cc1Cl` [ARN810], for which the ΔTm at 20 µM was -5.4 °C at FGFR3, 0 °C at BRPF1 and 0 °C at MAPK1. In addition, the IC50 in the series with NR3A1 (ERα) ((lit.), ref Supplementary Table 1) was 6 nM. Besides, the “rel. activity from literature, NR3A1 (ERα): % ERα remaining” value with NR3A1 (ERα) (ERα remaining (degrader), ref Supplementary Table 1) is on record as 9%.
With `C[C@@H]1Cc2c([nH]c3ccccc23)[C@@H](c2c(F)cc(/C=C/C(=O)O)cc2F)N1CC(C)(C)F` [AZD9496], the ΔTm at 20 µM was 0.58 °C on FGFR3, -4.53 °C on BRPF1 and 0.55 °C at MAPK1. Moreover, the “effects on growth-rate, metabolic activity and necrosis” value with HEK293T cells is recorded as “without relevant effects”. Further, the IC50 in the series on NR3A1 (ERα) is 0.28 ± 0.04 nM.
Take `COc1ccc(-c2coc3cc(O)cc(O)c3c2=O)cc1` [Biochanin A]: the “Activity on NR1I3 (CAR)” value on NR1I3 (CAR) (10 µM) is reported as -0.24 mean log10(fold reporter gene activity). For the same compound, the “Mean ΔTM FGFR3” value on FGFR3 worked out at 1.13 K. Also, on BRPF1, the “Mean ΔTM BRPF1” value is given as 2.98 K. Also, the “Mean ΔTM MAPK1” value at MAPK1 is on record as 0.55 K.
Regarding `CCCC1O[C@@H]2C[C@H]3[C@@H]4CCC5=CC(=O)C=C[C@]5(C)[C@H]4[C@@H](O)C[C@]3(C)[C@]2(C(=O)CO)O1` (stereo partly drawn) [Budesonide], the figures for the ΔTm at 20 µM at FGFR3, at BRPF1 and on MAPK1 were -0.77 °C, -1.04 °C and -0.27 °C, respectively. Besides, the “effects on growth-rate, metabolic activity and necrosis” value in the series with HEK293T cells was “without relevant effects”.
Consider `CCN(CC)c1ccc(/C=N/NC(=O)c2ccc(O)cc2)cc1` [DY131], for which the ΔTm at 20 µM at FGFR3 was determined as 0.00876 °C; on BRPF1 it was 1.09 °C; on MAPK1 it was 0.23 °C.
Take `CC/C(=C(/CC)c1ccc(O)cc1)c1ccc(O)cc1` [Diethylstilbestrol]: the ΔTm at 20 µM was -8.29 °C on FGFR3, -8.49 °C on BRPF1 and -12.2 °C on MAPK1. For the same compound, the “Cytotoxicity in HEK293T cells” value in the series on HEK293T cells (0.3 µM) is given as “non-toxic”.
As to `Cc1ccc2c(NC[C@](O)(CC(C)(C)c3cc(F)cc4c3OCC4)C(F)(F)F)cccc2n1` [Mapracorat], the figures for the ΔTm at 20 µM on FGFR3, on BRPF1 and at MAPK1 were -1.28 °C, 0.63 °C and -0.47 °C, respectively.
For `CC#C[C@]1(O)CC[C@H]2[C@@H]3CCC4=CC(=O)CCC4=C3[C@@H](c3ccc(N(C)C)cc3)C[C@@]21C` [Mifepristone] the same measures were 0.14 °C, -2.63 °C and -0.7 °C.
The corresponding values for `COc1cc(/C=C(\C#N)C(=O)Nc2nnc(C(F)(F)F)s2)ccc1OCc1ccc(C(F)(F)F)cc1C(F)(F)F` [XCT790] are 0.83 °C, -1.02 °C and 0.28 °C.
In the case of `C/C=C1\C(=O)C[C@H]2[C@@H]3CCC4=CC(=O)CC[C@]4(C)[C@H]3CC[C@]12C` [Z-Guggulsterone], the “Activity on NR1I3 (CAR)” value on NR1I3 (CAR) (3 µM) is on record as -0.48 mean log10(fold reporter gene activity). Moreover, the “Mean ΔTM BRPF1” value on BRPF1 is on record as -1.36 K. Moreover, on MAPK1, the “Mean ΔTM MAPK1” value was 0.47 K.
